Measurements taken from patent US10336732B2, “1-heterocyclyl isochromanyl compounds and analogs for treating CNS disorders” (Sunovion Pharmaceuticals Inc., priority 2015, dated 2019).

Test system: mice
Experiment: Neuropharmacological assay (SmartCube), behavioral signature of compound-treated mice
Assay type: in vivo
Conditions: i.p. 15 min before behavioral test, most efficacious dose(s) of 3 doses
From the text: Neurosci. […] As reported in Roberds, because psychiatric diseases generally result from disorders of cell-cell communication or circuitry, intact systems are useful in detecting improvement in disease-relevant endpoints. These endpoints are typically behavioral in nature, often requiring human observation and interpretation. To facilitate testing of multiple compounds for behavioral effects relevant to psychiatric disease, PsychoGenics, Inc. (Tarrytown, N.Y., “PGI”) developed SmartCube™, an automated system in which behaviors of compound-treated mice are captured by digital video and analyzed with computer algorithms. […] PGI Analytical Systems uses data from SmartCube™ to compare the behavioral signature of a test compound to a database of behavioral signatures obtained using a large set of diverse reference compounds. (The composition of the database as well as validation of the method is further described in Roberds). In this way, the neuropharmacological effects of a test compound can be predicted by similarity to major classes of compounds, such as antipsychotics, anxiolytics and antidepressants.
The SmartCube™ system produces an activity signature indicating the probability that the activity of the test compound at the administered dose matches a given class of neuropharmacological agents. (See, e.g., Roberds, FIGS. 2 and 3). The test compound is simultaneously compared against multiple classes of agents; thus, a separate probability is generated for each behavioral effect measured (e.g., anxiolytic activity, analgesic activity, etc.). In Table 4, these probabilities are reported for each behavioral effect measured as follows:
Provided compounds were dissolved in a mixture of Pharmasolve™ (N-methyl-2-pyrrolidone), polyethylene glycol and propylene glycol, and were injected i.p. 15 min. before the behavioral test. For each compound, injections were administered at 3 different doses. For each behavioral effect measured, results for the most efficacious dose(s) are presented.

**Q.** For `c1ccc2c(c1)CCO[C@@H]2[C@H]1CCCN1` [Compound I-20, (R)-2-((S)-isochroman-1-yl)pyrrolidine], which “AD: ADHD (probability that behavioral signature matches class)” value (shortened to “AD: ADHD”) is on record?
**A.** + (LOQ ≤ + <5%)

**Q.** What about the “AG: analgesic (probability that behavioral signature matches class)” value (“AG: analgesic” for short) of the same molecule?
**A.** ++ (5% ≤ ++ <25%)

**Q.** What about the “AX: anxiolytic (probability that behavioral signature matches class)” value (“AX: anxiolytic” for short) of the same molecule?
**A.** ++ (5% ≤ ++ <25%)

**Q.** What about the “CE: cognitive enhancer (probability that behavioral signature matches class)” value (from here on “CE: cognitive enhancer”) of the same molecule?
**A.** ++ (5% ≤ ++ <25%)

**Q.** What about the “DP: anti-depressant (probability that behavioral signature matches class)” value (from here on “DP: anti-depressant”) of the same molecule?
**A.** ++ (5% ≤ ++ <25%)

**Q.** And the “HA: hallucinogen (probability that behavioral signature matches class)” value (shortened to “HA: hallucinogen”)?
**A.** + (LOQ ≤ + <5%)

**Q.** And the “MS: mood stabilizer (probability that behavioral signature matches class)” value (“MS: mood stabilizer” for short)?
**A.** ++ (5% ≤ ++ <25%)

**Q.** What about the “PS: anti-psychotic (probability that behavioral signature matches class)” value (shortened to “PS: anti-psychotic”) of the same molecule?
**A.** ++++ (50% ≤ ++++)

**Q.** And the “SD: sedative hypnotic (probability that behavioral signature matches class)” value (shortened to “SD: sedative hypnotic”)?
**A.** ++ (5% ≤ ++ <25%)

**Q.** And the “UN: uncharacterized CNS activity (probability that behavioral signature matches class)” value (from here on “UN: uncharacterized CNS activity”)?
**A.** +++ (25% ≤ +++ <50%)

**Q.** What about the “XG: anxiogenic (probability that behavioral signature matches class)” value (“XG: anxiogenic” below) of the same molecule?
**A.** + (LOQ ≤ + <5%)

**Q.** Which results are given for `Cc1cccc2c1[C@@H]([C@@H]1CCCN1)OCC2` [Compound I-21, (S)-2-((S)-8-methylisochroman-1-yl)pyrrolidine]?
**A.** AD: ADHD (probability that behavioral signature matches class): + (LOQ ≤ + <5%); AG: analgesic (probability that behavioral signature matches class): ++ (5% ≤ ++ <25%); AX: anxiolytic (probability that behavioral signature matches class): ++ (5% ≤ ++ <25%); CE: cognitive enhancer (probability that behavioral signature matches class): + (LOQ ≤ + <5%); DP: anti-depressant (probability that behavioral signature matches class): ++ (5% ≤ ++ <25%); HA: hallucinogen (probability that behavioral signature matches class): + (LOQ ≤ + <5%); MS: mood stabilizer (probability that behavioral signature matches class): + (LOQ ≤ + <5%); PS: anti-psychotic (probability that behavioral signature matches class): ++ (5% ≤ ++ <25%); SD: sedative hypnotic (probability that behavioral signature matches class): + (LOQ ≤ + <5%); UN: uncharacterized CNS activity (probability that behavioral signature matches class): +++ (25% ≤ +++ <50%); XG: anxiogenic (probability that behavioral signature matches class): + (LOQ ≤ + <5%)

**Q.** For `Cc1cccc2c1[C@H]([C@@H]1CCCN1)OCC2` [Compound I-22, (S)-2-((R)-8-methylisochroman-1-yl)pyrrolidine], which “AD: ADHD” value is on record?
**A.** + (LOQ ≤ + <5%)

**Q.** And the “AG: analgesic” value?
**A.** ++ (5% ≤ ++ <25%)

**Q.** What about the “AX: anxiolytic” value of the same molecule?
**A.** ++ (5% ≤ ++ <25%)

**Q.** What about the “CE: cognitive enhancer” value of the same molecule?
**A.** ++ (5% ≤ ++ <25%)

**Q.** And the “DP: anti-depressant” value?
**A.** +++ (25% ≤ +++ <50%)

**Q.** What about the “HA: hallucinogen” value of the same molecule?
**A.** + (LOQ ≤ + <5%)

**Q.** And the “MS: mood stabilizer” value?
**A.** + (LOQ ≤ + <5%)

**Q.** What about the “PS: anti-psychotic” value of the same molecule?
**A.** +++ (25% ≤ +++ <50%)

**Q.** And the “SD: sedative hypnotic” value?
**A.** + (LOQ ≤ + <5%)

**Q.** What about the “UN: uncharacterized CNS activity” value of the same molecule?
**A.** + (LOQ ≤ + <5%)

**Q.** And the “XG: anxiogenic” value?
**A.** + (LOQ ≤ + <5%)

**Q.** Which results are given for `Cc1cccc2c1[C@H]([C@H]1CCCN1)OCC2` [Compound I-23, (R)-2-((R)-8-methylisochroman-1-yl)pyrrolidine]?
**A.** AD: ADHD (probability that behavioral signature matches class): + (LOQ ≤ + <5%); AG: analgesic (probability that behavioral signature matches class): +++ (25% ≤ +++ <50%); AX: anxiolytic (probability that behavioral signature matches class): ++ (5% ≤ ++ <25%); CE: cognitive enhancer (probability that behavioral signature matches class): ++ (5% ≤ ++ <25%); DP: anti-depressant (probability that behavioral signature matches class): ++ (5% ≤ ++ <25%); HA: hallucinogen (probability that behavioral signature matches class): + (LOQ ≤ + <5%); MS: mood stabilizer (probability that behavioral signature matches class): ++ (5% ≤ ++ <25%); PS: anti-psychotic (probability that behavioral signature matches class): +++ (25% ≤ +++ <50%); SD: sedative hypnotic (probability that behavioral signature matches class): ++ (5% ≤ ++ <25%); UN: uncharacterized CNS activity (probability that behavioral signature matches class): + (LOQ ≤ + <5%); XG: anxiogenic (probability that behavioral signature matches class): + (LOQ ≤ + <5%)

**Q.** Which “AD: ADHD” value does the source give for `Cc1cccc2c1[C@@H]([C@H]1CCCN1)OCC2` [Compound I-24, (R)-2-((S)-8-methylisochroman-1-yl)pyrrolidine] here?
**A.** + (LOQ ≤ + <5%)

**Q.** And the “AG: analgesic” value?
**A.** ++ (5% ≤ ++ <25%)

**Q.** What about the “AX: anxiolytic” value of the same molecule?
**A.** ++ (5% ≤ ++ <25%)

**Q.** What about the “CE: cognitive enhancer” value of the same molecule?
**A.** ++ (5% ≤ ++ <25%)

**Q.** What about the “DP: anti-depressant” value of the same molecule?
**A.** +++ (25% ≤ +++ <50%)

**Q.** And the “HA: hallucinogen” value?
**A.** + (LOQ ≤ + <5%)

**Q.** What about the “MS: mood stabilizer” value of the same molecule?
**A.** ++ (5% ≤ ++ <25%)

**Q.** What about the “PS: anti-psychotic” value of the same molecule?
**A.** ++ (5% ≤ ++ <25%)

**Q.** What about the “SD: sedative hypnotic” value of the same molecule?
**A.** ++ (5% ≤ ++ <25%)

**Q.** And the “UN: uncharacterized CNS activity” value?
**A.** + (LOQ ≤ + <5%)

**Q.** And the “XG: anxiogenic” value?
**A.** + (LOQ ≤ + <5%)

**Q.** With `Cc1ccc2c(c1)[C@H]([C@@H]1CCCN1)OCC2` [Compound I-25, (S)-2-((R)-7-methylisochroman-1-yl)pyrrolidine] as the molecule, how does the “AD: ADHD” value read?
**A.** + (LOQ ≤ + <5%)

**Q.** What about the “AG: analgesic” value of the same molecule?
**A.** +++ (25% ≤ +++ <50%)

**Q.** What about the “AX: anxiolytic” value of the same molecule?
**A.** ++ (5% ≤ ++ <25%)

**Q.** And the “CE: cognitive enhancer” value?
**A.** ++ (5% ≤ ++ <25%)

**Q.** And the “DP: anti-depressant” value?
**A.** ++ (5% ≤ ++ <25%)

**Q.** What about the “HA: hallucinogen” value of the same molecule?
**A.** + (LOQ ≤ + <5%)

**Q.** What about the “MS: mood stabilizer” value of the same molecule?
**A.** + (LOQ ≤ + <5%)

**Q.** What about the “PS: anti-psychotic” value of the same molecule?
**A.** ++ (5% ≤ ++ <25%)

**Q.** What about the “SD: sedative hypnotic” value of the same molecule?
**A.** + (LOQ ≤ + <5%)

**Q.** And the “UN: uncharacterized CNS activity” value?
**A.** ++ (5% ≤ ++ <25%)

**Q.** What about the “XG: anxiogenic” value of the same molecule?
**A.** + (LOQ ≤ + <5%)

**Q.** Which “AD: ADHD” value does the source give for `Cc1ccc2c(c1)[C@@H]([C@@H]1CCCN1)OCC2` [Compound I-26, (S)-2-((S)-7-methylisochroman-1-yl)pyrrolidine] here?
**A.** + (LOQ ≤ + <5%)

**Q.** And the “AG: analgesic” value?
**A.** + (LOQ ≤ + <5%)

**Q.** What about the “AX: anxiolytic” value of the same molecule?
**A.** ++ (5% ≤ ++ <25%)

**Q.** What about the “CE: cognitive enhancer” value of the same molecule?
**A.** + (LOQ ≤ + <5%)

**Q.** What about the “DP: anti-depressant” value of the same molecule?
**A.** + (LOQ ≤ + <5%)

**Q.** What about the “HA: hallucinogen” value of the same molecule?
**A.** + (LOQ ≤ + <5%)

**Q.** What about the “MS: mood stabilizer” value of the same molecule?
**A.** + (LOQ ≤ + <5%)

**Q.** What about the “PS: anti-psychotic” value of the same molecule?
**A.** + (LOQ ≤ + <5%)

**Q.** What about the “SD: sedative hypnotic” value of the same molecule?
**A.** + (LOQ ≤ + <5%)

**Q.** And the “UN: uncharacterized CNS activity” value?
**A.** + (LOQ ≤ + <5%)

**Q.** What about the “XG: anxiogenic” value of the same molecule?
**A.** + (LOQ ≤ + <5%)

**Q.** Which “AD: ADHD” value does the source give for `Cc1ccc2c(c1)[C@@H]([C@H]1CCCN1)OCC2` [Compound I-27, (R)-2-((S)-7-methylisochroman-1-yl)pyrrolidine] here?
**A.** + (LOQ ≤ + <5%)

**Q.** And the “AG: analgesic” value?
**A.** ++ (5% ≤ ++ <25%)

**Q.** And the “AX: anxiolytic” value?
**A.** +++ (25% ≤ +++ <50%)

**Q.** And the “CE: cognitive enhancer” value?
**A.** ++ (5% ≤ ++ <25%)

**Q.** And the “DP: anti-depressant” value?
**A.** ++ (5% ≤ ++ <25%)

**Q.** And the “HA: hallucinogen” value?
**A.** + (LOQ ≤ + <5%)

**Q.** What about the “MS: mood stabilizer” value of the same molecule?
**A.** ++ (5% ≤ ++ <25%)

**Q.** What about the “PS: anti-psychotic” value of the same molecule?
**A.** ++ (5% ≤ ++ <25%)

**Q.** What about the “SD: sedative hypnotic” value of the same molecule?
**A.** + (LOQ ≤ + <5%)

**Q.** And the “UN: uncharacterized CNS activity” value?
**A.** + (LOQ ≤ + <5%)

**Q.** And the “XG: anxiogenic” value?
**A.** + (LOQ ≤ + <5%)

**Q.** Which results are given for `Cc1ccc2c(c1)[C@H]([C@H]1CCCN1)OCC2` [Compound I-28, (R)-2-((R)-7-methylisochroman-1-yl)pyrrolidine]?
**A.** AD: ADHD (probability that behavioral signature matches class): + (LOQ ≤ + <5%); AG: analgesic (probability that behavioral signature matches class): ++ (5% ≤ ++ <25%); AX: anxiolytic (probability that behavioral signature matches class): +++ (25% ≤ +++ <50%); CE: cognitive enhancer (probability that behavioral signature matches class): + (LOQ ≤ + <5%); DP: anti-depressant (probability that behavioral signature matches class): ++ (5% ≤ ++ <25%); HA: hallucinogen (probability that behavioral signature matches class): + (LOQ ≤ + <5%); MS: mood stabilizer (probability that behavioral signature matches class): + (LOQ ≤ + <5%); PS: anti-psychotic (probability that behavioral signature matches class): ++ (5% ≤ ++ <25%); SD: sedative hypnotic (probability that behavioral signature matches class): + (LOQ ≤ + <5%); UN: uncharacterized CNS activity (probability that behavioral signature matches class): ++ (5% ≤ ++ <25%); XG: anxiogenic (probability that behavioral signature matches class): + (LOQ ≤ + <5%)
